Values quoted from earlier work, collected in patent EP3744320A1, “PHAR[…] C[…]” (Alfred E. Tiefenbacher (GmbH & Co. KG), priority 2019, dated 2020).

CN1CCc2nc(C(=O)N[C@@H]3C[C@@H](C(=O)N(C)C)CC[C@@H]3NC(=O)C(=O)Nc3ccc(Cl)cn3)sc2C1 [edoxaban, N'-(5-chloropyridin-2-yl)-N-[(1S,2R,4S)-4-(dimethylcarbamoyl)-2-[(5-methyl-6,7-dihydro-4H-[1,3]thiazolo[5,4-c]pyridine-2-carbonyl)amino]cyclohexyl]oxamide]
time of peak plasma concentrations (administered in vivo): 1 to 2 h
absolute bioavailability (in vivo): approximately 62%
absorbed in the upper gastrointestinal tract (in vivo): approximately 85%
